Measured values taken from patent US20110152089A1, “HERBICIDAL COMPOSITIONS COMPRISING FLUFENACET” (Bayer CropScience AG, priority 2009, published 2011).

Experiments:
VIOAR = assay: PE soil application vs incorporation into the soil, greenhouse (Table 1); type: in vivo, Viola arvensis; details: g of AS/ha: (A) 90, (B) 300, (C) 70, (A)+(B)+(C) 90 + 300 + 70, visual, about 3 weeks after application
Procedure: (§1) In the standard design of the test, seeds of various broad-leaved weed and weed grass biotypes (origins) were sown in a 8-13 cm diameter pot filled with natural soil of a standard field soil (loamy silt; non-sterile) and covered with a covering soil layer of about 1 cm. The pots were then cultivated in a greenhouse (12-16 h of light, temperature day 20-22° C., night 15-18° C.) until the time of application. The pots were treated on a laboratory track sprayer with spray liquors comprising the compositions according to the invention, mixtures of the prior art or components used individually. Application of the active compounds or active compound combinations formulated as WG, WP, EC or otherwise was carried out at the appropriate growth stages of the plants. The application rate for the spray application was 100-600 l of water/ha. After the treatment, the plants were returned to the greenhouses.
(§2) About 3 weeks after the application, the soil action or/and foliar action was assessed visually according to a scale of 0-100% in comparison to an untreated comparative group: 0%=no noticeable effect compared to the untreated comparative group; 100%=full effect compared to the untreated comparative group.
(notes: the term “seeds” also includes vegetative propagation forms such as, for example, rhizome pieces; abbreviations used: h light=hours of illumination, g of AS/ha=gram of active substance per hectare, l/ha=liter per hectare, S=sensitive, R=resistant) • 1. Pre-emergence action against weeds: seeds of various broad-leaved weed and weed grass biotypes (origins) were sown in a 8-13 cm diameter pot filled with natural soil of a standard field soil (loamy silt; non-sterile) and covered with a covering soil layer of about 1 cm. The pots were then cultivated in a greenhouse (12-16 h of light, temperature day 20-22° C., night 15-18° C.) until the time of application. The pots were treated at the BBCH stage 00-10 of the seeds/plants on a laboratory track sprayer with spray liquors comprising the compositions according to the invention, mixtures or components used individually, as WG, WP, EC or other formulations. The application rate for the spray application was 100-600 l of water/ha. After the treatment, the plants were returned to the greenhouses and, when required, treated with fertilizer and watered. • 2. Post-emergence action against weeds: seeds of various broad-leaved weed and weed grass biotypes (origins) were sown in a 8-13 cm diameter pot filled with natural soil of a standard field soil (loamy silt; non-sterile) and covered with a covering soil layer of about 1 cm. The pots were then cultivated in a greenhouse (12-16 h of light, temperature day 20-22° C., night 15-18° C.) until the time of application. […]

STEME [1] = assay: as above; type: in vivo, Stellaria media; details: g of AS/ha: (A) 90, (B) 300, (C) 70, (A)+(B)+(C) 90 + 300 + 70, visual, about 3 weeks after application
Procedure: as §1, §2
(§3) (notes: the term “seeds” also includes vegetative propagation forms such as, for example, rhizome pieces; abbreviations used: h light=hours of illumination, g of AS/ha=gram of active substance per hectare, l/ha=liter per hectare, S=sensitive, R=resistant) • 1. Pre-emergence action against weeds: seeds of various broad-leaved weed and weed grass biotypes (origins) were sown in a 8-13 cm diameter pot filled with natural soil of a standard field soil (loamy silt; non-sterile) and covered with a covering soil layer of about 1 cm. The pots were then cultivated in a greenhouse (12-16 h of light, temperature day 20-22° C., night 15-18° C.) until the time of application. The pots were treated at the BBCH stage 00-10 of the seeds/plants on a laboratory track sprayer with spray liquors comprising the compositions according to the invention, mixtures or components used individually, as WG, WP, EC or other formulations. The application rate for the spray application was 100-600 l of water/ha. After the treatment, the plants were returned to the greenhouses and, when required, treated with fertilizer and watered. • 2. Post-emergence action against weeds: seeds of various broad-leaved weed and weed grass biotypes (origins) were sown in a 8-13 cm diameter pot filled with natural soil of a standard field soil (loamy silt; non-sterile) and covered with a covering soil layer of about 1 cm. The pots were then cultivated in a greenhouse (12-16 h of light, temperature day 20-22° C., night 15-18° C.) until the time of application. The pots were treated at various BBCH stages between 11-25 of the seeds/plants, i.e. generally between two to three weeks after the start of the cultivation, on a laboratory track sprayer with spray liquors comprising the compositions according to the invention, mixtures or components used individually, as WG, WP, EC or other formulations. The application rate for the spray application was 100-600 l of water/ha. After the treatment, the plants were returned to the greenhouses and, when required, treated with fertilizer and watered. • 3. Pre-emergence action against weeds with and without incorporation of active compound: seeds of various broad-leaved weed and weed grass biotypes (origins) were sown in a 8-13 cm diameter pot filled with natural soil of a standard field soil (loamy silt; non-sterile). […]

HORVS [2] = assay: PE soil application vs incorporation into the soil, crop selectivity, greenhouse (Table 1); type: in vivo, Hordeum vulgare, summer barley; details: g of AS/ha: (A) 90, (B) 300, (C) 70, (A)+(B)+(C) 90 + 300 + 70, visual, about 3 weeks after application
Procedure: as §1, §2, §3

POAAN = assay: PO application, greenhouse (Table 2); type: in vivo, Poa annua; details: g of AS/ha: (A) 120, (B) 1200, (C) 140, (A)+(B)+(C) 120 + 1200 + 140, visual, about 3 weeks after application
Procedure: as §1, §2
(§4) (notes: the term “seeds” also includes vegetative propagation forms such as, for example, rhizome pieces; abbreviations used: h light=hours of illumination, g of AS/ha=gram of active substance per hectare, l/ha=liter per hectare, S=sensitive, R=resistant) • 1. Pre-emergence action against weeds: seeds of various broad-leaved weed and weed grass biotypes (origins) were sown in a 8-13 cm diameter pot filled with natural soil of a standard field soil (loamy silt; non-sterile) and covered with a covering soil layer of about 1 cm. The pots were then cultivated in a greenhouse (12-16 h of light, temperature day 20-22° C., night 15-18° C.) until the time of application. […]

HORVS [3] = assay: PO application, crop selectivity, greenhouse (Table 2); type: in vivo, Hordeum vulgare, summer barley; details: g of AS/ha: (A) 120, (B) 1200, (C) 140, (A)+(B)+(C) 120 + 1200 + 140, visual, about 3 weeks after application
Procedure: as §1, §2, §4

MATCH [4] = assay: PE application with different irrigation, greenhouse (Table 4); type: in vivo, Matricaria chamomilla; details: g of AS/ha: (A) 90, (B) 300, (C) 140, (A)+(B)+(C) 90 + 300 + 140
Procedure: as §1, §2, §3

AVEFA = assay: as above; type: in vivo, Avena fatua; details: g of AS/ha: (A) 90, (B) 300, (C) 140, (A)+(B)+(C) 90 + 300 + 140
Procedure: as §1, §2, §3

HORVS [5] = assay: PE application with different irrigation, crop selectivity, greenhouse (Table 4); type: in vivo, Hordeum vulgare, summer barley; details: g of AS/ha: (A) 90, (B) 300, (C) 140, (A)+(B)+(C) 90 + 300 + 140
Procedure: as §1, §2, §3

STEME [6] = assay: Activity with different soil types, greenhouse (Table 5); type: in vivo, Stellaria media; details: g of AS/ha: (A) 90, (B) 300, (C) 140, (A)+(B)+(C) 90 + 300 + 140; for activity STEME IU soil: IU soil (loamy silt standard field soil); for activity STEME IU/EC73 soil: IU/EC73 soil (heavy soil, higher organic substance)
Procedure: as §1, §2, §3

HORVS [7] = assay: Activity with different soil types, crop selectivity, greenhouse (Table 5); type: in vivo, Hordeum vulgare, summer barley; details: g of AS/ha: (A) 90, (B) 300, (C) 140, (A)+(B)+(C) 90 + 300 + 140; for activity HORVS IU soil (crop plant): IU soil (loamy silt standard field soil); for activity HORVS IU/EC73 soil (crop plant): IU/EC73 soil (heavy soil, higher organic substance)
Procedure: as §1, §2, §3

STEME [8] = assay: Resistant biotypes, PE application, greenhouse (Table 6); type: in vivo, Stellaria media; details: g of AS/ha: (A) 90, (B) 300, (C) 140, (A)+(B)+(C) 120 + 600 + 140, iodosulfuron 10; for activity STEME resistant: resistant biotype; for activity STEME sensitive: sensitive biotype
Procedure: as §1, §2, §3

MATCH [9] = assay: Different sowing depths, PE application, greenhouse (Table 7); type: in vivo, Matricaria chamomilla; details: for activity MATCH 5 mm: sowing depth 5 mm; for activity MATCH 20 mm: sowing depth 20 mm
Procedure: as §1, §2, §3

HORVS [10] = assay: Different sowing depths, PE application, crop selectivity, greenhouse (Table 7); type: in vivo, Hordeum vulgare, summer barley; details: for activity HORVS 5 mm (crop plant): sowing depth 5 mm; for activity HORVS 20 mm (crop plant): sowing depth 20 mm
Procedure: as §1, §2, §3

HORVS [11] = assay: Different soil pH, PE application, crop selectivity, greenhouse (Table 8); type: in vivo, Hordeum vulgare, summer barley; details: for activity HORVS pH 7.4 (crop plant): soil pH 7.4, g of AS/ha: (A) 90, (B) 300, (C) 140, (A)+(B)+(C) 90 + 300 + 140; for activity HORVS pH 8.4 (crop plant): soil pH 8.4, g of AS/ha: (A) 90, (B) 300, (C) 140, (A)+(B)+(C) 90 + 300 + 140
Procedure: as §1, §2, §3

MATCH [12] = assay: Different soil pH, PE application, greenhouse (Table 8); type: in vivo, Matricaria chamomilla; details: for activity MATCH pH 7.4: soil pH 7.4, g of AS/ha: (A) 90, (B) 300, (C) 140, (A)+(B)+(C) 90 + 300 + 140; for activity MATCH pH 8.4: soil pH 8.4, g of AS/ha: (A) 90, (B) 300, (C) 140, (A)+(B)+(C) 90 + 300 + 140
Procedure: as §1, §2, §3

[13] = g of AS/ha: (A) 90, (B) 300, (C) 140, (A)+(B)+(C) 90 + 300 + 140
[14] = g of AS/ha: (A) 90, (B) 300, (C) 140, (A)+(B)+(C) 90 + 300 + 140, listed as trifluralin

SMILES | activity VIOAR (VIOAR; PE application) | activity VIOAR (VIOAR; incorporation into the soil) | activity STEME (STEME [1]; PE application) | activity STEME (STEME [1]; incorporation into the soil) | activity HORVS (crop plant) (HORVS [2]; PE application) | activity HORVS (crop plant) (HORVS [2]; incorporation into the soil) | activity POAAN (POAAN) | activity HORVS (crop plant) (HORVS [3]) | activity MATCH (MATCH [4]; irrigation from above) | activity MATCH (MATCH [4]; irrigation from below) | activity AVEFA (AVEFA; irrigation from above) | activity AVEFA (AVEFA; irrigation from below) | activity HORVS (crop plant) (HORVS [5]; irrigation from above) | activity HORVS (crop plant) (HORVS [5]; irrigation from below) | activity STEME IU soil (STEME [6]) | activity STEME IU/EC73 soil (STEME [6]) | activity HORVS IU soil (crop plant) (HORVS [7]) | activity HORVS IU/EC73 soil (crop plant) (HORVS [7]) | activity STEME resistant (STEME [8]) | activity STEME sensitive (STEME [8]) | further results
CCCN(CCC)c1c([N+](=O)[O-])cc(C(F)(F)F)cc1[N+](=O)[O-] [(B) trifluralin, 2,6-dinitro-N,N-dipropyl-4-(trifluoromethyl)benzenamine] | 50% | 0% | 10% | 70% | 0% | 35% | 40% | 20% | 0% | 40% | 25% | 38% | 90% | 60% | 50% | 5% | 0% | 0% | 20% | 20% | activity MATCH 5 mm (MATCH [9]; [13]): 0%; activity MATCH 5 mm (MATCH [9]; [14]): 100%; activity MATCH 20 mm (MATCH [9]; [13]): 30%; activity MATCH 20 mm (MATCH [9]; [14]): 70%; activity HORVS 5 mm (crop plant) (HORVS [10]; [13]): 25%; activity HORVS 5 mm (crop plant) (HORVS [10]; [14]): 70%; activity HORVS 20 mm (crop plant) (HORVS [10]; [13]): 20%; activity HORVS 20 mm (crop plant) (HORVS [10]; [14]): 30%; activity HORVS pH 7.4 (crop plant) (HORVS [11]): 20%; activity HORVS pH 8.4 (crop plant) (HORVS [11]): 10%; activity MATCH pH 7.4 (MATCH [12]): 0%; activity MATCH pH 8.4 (MATCH [12]): 0%
CSc1nnc(C(C)(C)C)c(=O)n1N [(C) metribuzin, 4-amino-6-(1,1-dimethyl-ethyl)-3-(methylthio)-1,2,4-triazin-5-(4H)-one] | 0% | 10% | 75% | 0% | 30% | 70% | 79% | 70% | 0% | 60% | 30% | 30% | 80% | 10% | 75% | 5% | 0% | 0% | 98% | 100% | activity MATCH 5 mm (MATCH [9]; [13]): 100%; activity MATCH 20 mm (MATCH [9]; [13]): 70%; activity HORVS 5 mm (crop plant) (HORVS [10]; [13]): 70%; activity HORVS 20 mm (crop plant) (HORVS [10]; [13]): 30%; activity HORVS pH 7.4 (crop plant) (HORVS [11]): 40%; activity HORVS pH 8.4 (crop plant) (HORVS [11]): 50%; activity MATCH pH 7.4 (MATCH [12]): 100%; activity MATCH pH 8.4 (MATCH [12]): 98%
